What was measured:
[1] = species on record: Homo sapiens; assay: Selectivity for humanized cathepsin K over human cathepsin L
[2] = species on record: Homo sapiens; assay: Selectivity for humanized cathepsin K over human cathepsin S

Ratio IC50 [1]	Ratio IC50 [2]	Structure (SMILES)
4300		CSCC[C@H](NC(=O)[C@H](CC(C)C)N[C@@H](c1ccc(-c2ccc(S(C)(=O)=O)cc2)cc1)C(F)(F)F)C(N)=O
	170	CC(C)C[C@H](N[C@@H](c1ccc(-c2ccc(S(C)(=O)=O)cc2)cc1)C(F)(F)F)C(=O)NCC(N)=O
1700		CC(C)C[C@H](N[C@@H](c1ccc(-c2ccc(S(C)(=O)=O)cc2)cc1)C(F)(F)F)C(=O)N[C@@H](Cc1ccccc1)C(N)=O

From ChEMBL document CHEMBL1140019, “Primary amides as selective inhibitors of cathepsin K” (Bioorg Med Chem Lett, 2007)
